According to ChEMBL document CHEMBL1149357, “Propionylpiperazines as human melanocortin-4 receptor ligands” (Bioorg Med Chem Lett, 2006):

System: Mus musculus
Experiment: AUC in mouse at 10 mg/kg, po
Assay type: ADME, organism-based, Plasma
Design: dose 10 mg/kg, route oral
Conditions: in vivo

Structure (SMILES) | AUC [ng·h/mL]
COc1cc(Cl)ccc1CC(C)C(=O)N1CCN(c2ccc(C(F)(F)F)cc2[C@@H](N)CC(C)C)CC1 (stereo not given in full) | 249
Cc1ccc(N2CCN(C(=O)[C@H](C)Cc3ccc(Cl)cc3)CC2)c([C@@H](N)CC(C)C)c1 | 1760

System: not listed separately
Experiment: Half life in mouse at 5 mg/kg, iv
Assay type: ADME, organism-based
Design: dose 5 mg/kg, route intravenous
Conditions: in vivo

Structure (SMILES) | half-life [h]
COc1cc(Cl)ccc1CC(C)C(=O)N1CCN(c2ccc(C(F)(F)F)cc2[C@@H](N)CC(C)C)CC1 (stereo not given in full) | 1.9
Cc1ccc(N2CCN(C(=O)[C@H](C)Cc3ccc(Cl)cc3)CC2)c([C@@H](N)CC(C)C)c1 | 3.5

System: not listed separately
Experiment: Drug level in mouse brain at 5 mg/kg, iv after 4 hrs
Assay type: ADME, organism-based
Design: dose 5 mg/kg, route intravenous
Conditions: read-out: Drug uptake

Structure (SMILES) | concentration at 4 h [ng/g]
COc1cc(Cl)ccc1CC(C)C(=O)N1CCN(c2ccc(C(F)(F)F)cc2[C@@H](N)CC(C)C)CC1 (stereo not given in full) | 122
Cc1ccc(N2CCN(C(=O)[C@H](C)Cc3ccc(Cl)cc3)CC2)c([C@@H](N)CC(C)C)c1 | 330

System: not listed separately
Experiment: Volume of distribution in mouse at 5 mg/kg, iv
Assay type: ADME, organism-based
Design: dose 5 mg/kg, route intravenous
Conditions: in vivo, read-out: Vdss

Structure (SMILES) | Vd [L/kg]
COc1cc(Cl)ccc1CC(C)C(=O)N1CCN(c2ccc(C(F)(F)F)cc2[C@@H](N)CC(C)C)CC1 (stereo not given in full) | 10.3
Cc1ccc(N2CCN(C(=O)[C@H](C)Cc3ccc(Cl)cc3)CC2)c([C@@H](N)CC(C)C)c1 | 10.2

Target: Melanocortin receptor 3 (Homo sapiens, UniProt P41968)
Sequence (P41968 whole entry): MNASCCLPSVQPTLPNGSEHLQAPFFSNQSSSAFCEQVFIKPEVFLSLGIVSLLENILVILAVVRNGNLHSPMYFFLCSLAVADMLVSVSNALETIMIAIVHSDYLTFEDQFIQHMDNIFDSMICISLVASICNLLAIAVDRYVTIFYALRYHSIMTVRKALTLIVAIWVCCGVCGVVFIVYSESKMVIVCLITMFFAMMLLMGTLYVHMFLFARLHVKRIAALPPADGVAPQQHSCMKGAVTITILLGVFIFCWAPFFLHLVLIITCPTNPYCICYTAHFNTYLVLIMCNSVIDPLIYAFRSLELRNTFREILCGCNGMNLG
Experiment: Displacement of [125I]NDP-MSH from human MC3R stably expressed in HEK293 cells
Assay type: cell-based
Conditions: not given

Structure (SMILES) | Ki [nM]
COc1cc(Cl)ccc1CC(C)C(=O)N1CCN(c2ccc(C(F)(F)F)cc2[C@@H](N)CC(C)C)CC1 (stereo not given in full) | 320
Cc1ccc(N2CCN(C(=O)[C@H](C)Cc3ccc(Cl)cc3)CC2)c([C@@H](N)CC(C)C)c1 | 1300

Target: Melanocortin receptor 5 (Homo sapiens, UniProt P33032)
Sequence (P33032 whole entry): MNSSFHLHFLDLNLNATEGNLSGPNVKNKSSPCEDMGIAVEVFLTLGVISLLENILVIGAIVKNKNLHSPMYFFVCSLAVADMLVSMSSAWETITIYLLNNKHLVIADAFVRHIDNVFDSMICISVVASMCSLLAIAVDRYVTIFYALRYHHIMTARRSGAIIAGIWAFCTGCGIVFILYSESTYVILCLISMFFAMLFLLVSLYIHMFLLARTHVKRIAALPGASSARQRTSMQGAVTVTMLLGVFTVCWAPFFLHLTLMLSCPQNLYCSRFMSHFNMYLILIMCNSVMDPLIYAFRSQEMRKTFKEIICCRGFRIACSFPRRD
Experiment: Displacement of [125I]NDP-MSH from human MC5R stably expressed in HEK293 cells
Assay type: cell-based
Conditions: not given

Structure (SMILES) | Ki [nM]
COc1cc(Cl)ccc1CC(C)C(=O)N1CCN(c2ccc(C(F)(F)F)cc2[C@@H](N)CC(C)C)CC1 (stereo not given in full) | 86
Cc1ccc(N2CCN(C(=O)[C@H](C)Cc3ccc(Cl)cc3)CC2)c([C@@H](N)CC(C)C)c1 | 1000

System: not listed separately
Experiment: Bioavailability in mouse at 10 mg/kg, po
Assay type: ADME, organism-based
Conditions: in vivo

Structure (SMILES) | bioavailability [%]
COc1cc(Cl)ccc1CC(C)C(=O)N1CCN(c2ccc(C(F)(F)F)cc2[C@@H](N)CC(C)C)CC1 (stereo not given in full) | 8.6
Cc1ccc(N2CCN(C(=O)[C@H](C)Cc3ccc(Cl)cc3)CC2)c([C@@H](N)CC(C)C)c1 | 34.4

Target: T1, Melanocortin receptor 4 (Homo sapiens, UniProt P32245)
T1 sequence (P32245 whole entry): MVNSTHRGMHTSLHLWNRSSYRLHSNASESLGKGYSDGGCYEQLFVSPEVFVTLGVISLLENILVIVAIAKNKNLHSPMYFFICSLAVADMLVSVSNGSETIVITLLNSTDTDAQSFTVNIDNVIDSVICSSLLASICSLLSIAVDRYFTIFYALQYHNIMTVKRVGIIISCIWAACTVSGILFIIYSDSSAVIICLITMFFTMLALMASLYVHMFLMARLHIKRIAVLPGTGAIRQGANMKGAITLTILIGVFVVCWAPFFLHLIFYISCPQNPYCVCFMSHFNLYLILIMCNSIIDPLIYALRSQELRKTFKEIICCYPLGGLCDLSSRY
Experiment: Activity at MC4R assessed as inhibition of alpha MSH-stimulated cAMP production in HEK293 cells
Assay type: functional, cell-based
Conditions: not given

Structure (SMILES) | IC50 [nM]
COc1cc(Cl)ccc1CC(C)C(=O)N1CCN(c2ccc(C(F)(F)F)cc2[C@@H](N)CC(C)C)CC1 (stereo not given in full) | 1700
Cc1ccc(N2CCN(C(=O)[C@H](C)Cc3ccc(Cl)cc3)CC2)c([C@@H](N)CC(C)C)c1 | 560

System: Mus musculus
Experiment: AUC in mouse at 5 mg/kg, iv
Assay type: ADME, organism-based, Plasma
Design: dose 5 mg/kg, route intravenous
Conditions: in vivo

Structure (SMILES) | AUC [ng·h/mL]
COc1cc(Cl)ccc1CC(C)C(=O)N1CCN(c2ccc(C(F)(F)F)cc2[C@@H](N)CC(C)C)CC1 (stereo not given in full) | 1450
Cc1ccc(N2CCN(C(=O)[C@H](C)Cc3ccc(Cl)cc3)CC2)c([C@@H](N)CC(C)C)c1 | 2560

System: not listed separately
Experiment: Tmax in mouse at 10 mg/kg, po
Assay type: ADME, organism-based
Design: dose 10 mg/kg, route oral
Conditions: in vivo

Structure (SMILES) | Tmax [h]
COc1cc(Cl)ccc1CC(C)C(=O)N1CCN(c2ccc(C(F)(F)F)cc2[C@@H](N)CC(C)C)CC1 (stereo not given in full) | 0.25
Cc1ccc(N2CCN(C(=O)[C@H](C)Cc3ccc(Cl)cc3)CC2)c([C@@H](N)CC(C)C)c1 | 0.5

System: not listed separately
Experiment: Clearance in mouse at 5 mg/kg, iv
Assay type: ADME, organism-based
Design: dose 5 mg/kg, route intravenous
Conditions: in vivo

Structure (SMILES) | clearance [mL/min/kg]
COc1cc(Cl)ccc1CC(C)C(=O)N1CCN(c2ccc(C(F)(F)F)cc2[C@@H](N)CC(C)C)CC1 (stereo not given in full) | 62.3
Cc1ccc(N2CCN(C(=O)[C@H](C)Cc3ccc(Cl)cc3)CC2)c([C@@H](N)CC(C)C)c1 | 33.3

System: not listed separately
Experiment: Drug level in mouse brain at 5 mg/kg, iv after 1 hr
Assay type: ADME, organism-based
Design: dose 5 mg/kg, route intravenous
Conditions: read-out: Drug uptake

Structure (SMILES) | concentration at 1 h [ng/g]
COc1cc(Cl)ccc1CC(C)C(=O)N1CCN(c2ccc(C(F)(F)F)cc2[C@@H](N)CC(C)C)CC1 (stereo not given in full) | 735
Cc1ccc(N2CCN(C(=O)[C@H](C)Cc3ccc(Cl)cc3)CC2)c([C@@H](N)CC(C)C)c1 | 940

Target: Melanocyte-stimulating hormone receptor (Homo sapiens, UniProt Q01726)
Experiment: Displacement of [125I]NDP-MSH from human MC1R stably expressed in HEK293 cells
Assay type: cell-based
Conditions: not given

Structure (SMILES) | Activity [%] | Ki [nM]
COc1cc(Cl)ccc1CC(C)C(=O)N1CCN(c2ccc(C(F)(F)F)cc2[C@@H](N)CC(C)C)CC1 (stereo not given in full) | 23 | 
Cc1ccc(N2CCN(C(=O)[C@H](C)Cc3ccc(Cl)cc3)CC2)c([C@@H](N)CC(C)C)c1 |  | 3100

System: not listed separately
Experiment: Cmax in mouse at 10 mg/kg, po
Assay type: ADME, organism-based
Design: dose 10 mg/kg, route oral
Conditions: in vivo

Structure (SMILES) | Cmax [ng/mL]
COc1cc(Cl)ccc1CC(C)C(=O)N1CCN(c2ccc(C(F)(F)F)cc2[C@@H](N)CC(C)C)CC1 (stereo not given in full) | 99
Cc1ccc(N2CCN(C(=O)[C@H](C)Cc3ccc(Cl)cc3)CC2)c([C@@H](N)CC(C)C)c1 | 267

System: not listed separately
Experiment: Lipophilicity, log D of the compound
Assay type: physicochemical
Conditions: octanol/water

Structure (SMILES) | logD
COc1cc(Cl)ccc1CC(C)C(=O)N1CCN(c2ccc(C(F)(F)F)cc2[C@@H](N)CC(C)C)CC1 (stereo not given in full) | > 4
Cc1ccc(N2CCN(C(=O)[C@H](C)Cc3ccc(Cl)cc3)CC2)c([C@@H](N)CC(C)C)c1 | 3

Target: T1, Melanocortin receptor 4
Experiment: Displacement of [125I]NDP-MSH from human MC4R stably expressed in HEK293 cells
Assay type: cell-based
Conditions: not given

Structure (SMILES) | Ki [nM]
COc1cccc(CC(C)C(=O)N2CCN(c3ccc(C(F)(F)F)cc3[C@@H](N)CC(C)C)CC2)c1 (stereo not given in full) | 3100
CC(C)C[C@H](N)c1cc(F)ccc1N1CCN(C(=O)C(C)Cc2ccc(Cl)cc2)CC1 (stereo not given in full) | 390
CC(C)C[C@H](N)c1ccccc1N1CCN(C(=O)[C@H](C)Cc2ccc(Cl)cc2Cl)CC1 | 16
Cc1cc(CC(C)C(=O)N2CCN(c3ccc(C(F)(F)F)cc3[C@@H](N)CC(C)C)CC2)ccc1Cl (stereo not given in full) | 71
CC(C)C[C@H](N)c1cc(C(F)(F)F)ccc1N1CCN(C(=O)CSc2ccc(Cl)cc2Cl)CC1 | 1500
CC(C)C[C@H](N)c1cc(Cl)ccc1N1CCN(C(=O)C(C)Cc2ccc(Cl)cc2)CC1 (stereo not given in full) | 67
CC(C)C[C@H](N)c1cc(C(F)(F)F)ccc1N1CCN(C(=O)[C@@H](C)Cc2ccc(Cl)cc2Cl)CC1 | 140
CC(C)C[C@H](N)c1cc(C(F)(F)F)ccc1N1CCN(C(=O)CCC(=O)N(C)C)CC1 | > 10000
CC(C)C[C@H](N)c1cc(C(F)(F)F)ccc1N1CCN(C(=O)C(C)Cc2ccc(Cl)cc2F)CC1 (stereo not given in full) | 60
CC(C)C[C@H](N)c1cc(C(F)(F)F)ccc1N1CCN(C(=O)CC(C)C(=O)c2ccc(Cl)cc2)CC1 (stereo not given in full) | 1100
COc1cc(Cl)ccc1CC(C)C(=O)N1CCN(c2ccc(C(F)(F)F)cc2[C@@H](N)CC(C)C)CC1 (stereo not given in full) | 14
CC(C)C[C@H](N)c1cc(C(F)(F)F)ccc1N1CCN(C(=O)Cn2cnc3ccccc32)CC1 | 2100
CC(C)C[C@H](N)c1cc(C(F)(F)F)ccc1N1CCN(C(=O)COc2ccccc2)CC1 | > 10000
COc1ccc(CC(C)C(=O)N2CCN(c3ccc(C(F)(F)F)cc3[C@@H](N)CC(C)C)CC2)cc1F (stereo not given in full) | 200
CC(C)C[C@H](N)c1cc(C(F)(F)F)ccc1N1CCN(C(=O)COc2cccc(Cl)c2)CC1 | 2600
CC(C)C[C@H](N)c1cc(C(F)(F)F)ccc1N1CCN(C(=O)CCC(=O)c2ccc(Cl)cc2)CC1 | 820
CC(C)C[C@H](N)c1cc(C(F)(F)F)ccc1N1CCN(C(=O)C(C)Cc2ccc(Cl)cc2O)CC1 (stereo not given in full) | 36
Cc1ccc(CC(C)C(=O)N2CCN(c3ccc(C(F)(F)F)cc3[C@@H](N)CC(C)C)CC2)cc1C (stereo not given in full) | 240
CC(C)C[C@H](N)c1cc(C(F)(F)F)ccc1N1CCN(C(=O)COc2ccc([N+](=O)[O-])cc2)CC1 | 3100
COc1cc(CC(C)C(=O)N2CCN(c3ccc(C(F)(F)F)cc3[C@@H](N)CC(C)C)CC2)ccc1Cl (stereo not given in full) | 230
CC(C)C[C@H](N)c1cc(C(F)(F)F)ccc1N1CCN(C(=O)C(C)Cc2cccc(Cl)c2)CC1 (stereo not given in full) | 920
CC(C)C[C@H](N)c1cc(C(F)(F)F)ccc1N1CCN(C(=O)COc2cccc3ccccc23)CC1 | 2600
Cc1ccc(N2CCN(C(=O)[C@H](C)Cc3ccc(Cl)cc3C)CC2)c([C@@H](N)CC(C)C)c1 | 5.9
Cc1ccc(N2CCN(C(=O)[C@H](C)Cc3ccc(Cl)cc3F)CC2)c([C@@H](N)CC(C)C)c1 | 20
CC(C)C[C@H](N)c1cc(C(F)(F)F)ccc1N1CCN(C(=O)COc2ccc(Cl)cc2)CC1 | 2900
CC(C)C[C@H](N)c1cc(C(F)(F)F)ccc1N1CCN(C(=O)COc2cccc(Cl)c2Cl)CC1 | 2500
CC(C)C[C@H](N)c1cc(C(F)(F)F)ccc1N1CCN(C(=O)C(C)Cc2ccc(Cl)c(Cl)c2)CC1 (stereo in doubt; 8q) | 1600
CC(C)C[C@H](N)c1cc(C(F)(F)F)ccc1N1CCN(C(=O)COc2ccc(Cl)cc2Cl)CC1 | 4200
CC(C)C[C@H](N)c1cc(C(F)(F)F)ccc1N1CCN(C(=O)COc2ccc(Cl)c(Cl)c2)CC1 | 2500
Cc1ccc(N2CCN(C(=O)[C@H](C)Cc3ccc(Cl)cc3)CC2)c([C@@H](N)CC(C)C)c1 | 25
